Data reported in patent US6913882B2, “Methods of screening for B cell activity modulators” (Affymetrix, Inc., priority 1999, dated 2005).
Read-outs that look alike come from different tables or passages of the source.

Legend:
[1] = tested on: B cell; test: B cell death on activation in the presence of FK506; type: cell-based
[2] = tested on: early response genes; test: B cell activation (HEL or anti-mu, 1 hr) with FK506, EGTA or PD98059, early response gene expression on arrays; type: cell-based, mice
Method: (§1) Splenic B cells from non-transgenic, Ig^HEL or sHEL/Ig^HEL transgenic mice were purified at room temperature in 1% bovine calf serum in RPMI. The spleen cells were stained with CD4, CD8 and Mac-1 FITC conjugated antibodies (Caltag) and depleted of T cells and macrophages with sheep anti-FITC magnetic beads (Perseptive Biosystems). The remaining cells were 85-95% B220 positive and were either lysed immediately (naive and tolerant cell preps) or stimulated in RPMI with 1% serum at 37° C. at 2-3×10^6 cells/ml. For stimulation experiments, HEL (Sigma) was used at 500 ng/ml, goat anti-mu (Jackson Labs) at 10 μg/ml, FK506 at 10 ng/ml, PD98059 (NEB) at 20 μM unless stated otherwise, ionomycin at 1 μM and EGTA at 3 mM. Cells were preincubated for 45 minutes with PD98059, 15 minutes with FK506 and 2 minutes with EGTA before addition of HEL or anti-mu. Mock stimulations were performed by addition of carrier alone for stimuli or inhibitors. At the end of the incubation, the cells were pelleted by centrifugation, resuspended in a minimal volume of medium (about 50 μl) by pipetting and lysed in 0.5-1 ml Trizol (Gibco BRL).
(§2) Trizol lysates were phenol-extracted and precipitated with isopropanol. Poly A+ RNA was purified with Oligotex (Qiagen). cDNA was synthesised with a Superscriptll cDNA synthesis kit (Gibco BRL) using a T7:(dT)24 oligo to prime the first strand and purified by phenol extraction and ethanol precipitation. […]
Each gene on the arrays was tiled as a collection of approximately 20 probe pairs. […] The perfect match—mismatch intensities (PM—MM) were calculated for each probe pair for each gene in each experiment. […] Positive t values associated with a probability of less than 0.1 were scored as increased, negative t values with a probability of less than 0.1 were scored as decreased. The number of increased and decreased probe pairs associated with each gene was determined and called npos and nneg respectively (of the approximately 20 probe pairs tiled for each gene). […] The probability of scoring npos or more of the total number of probe pairs was determined. […]

[3] = tested on: Egr-1; test: B cell activation with PD98059 titration, Egr-1 upregulation monitored on expression arrays; type: cell-based, mice
Method: as §1
as §2, with “precipitation. The cDNA was used as a template for in vitro transcription (IVT) using the Megascript system (Ambion) with the inclusion of biotinylated CTP and UTP.” for “precipitation.”
An intensity for each gene was calculated based on a trimmed mean of the PM—MM values. […]
In addition to NFAT, the ERK pathway is also activated in foreign or self antigen-stimulated cells. To determine downstream transcriptional effects of ERK, the effect of MEK, an ERK kinase, on B cell activation was determined. The MEK inhibitor PD98059 was titrated in B cell activation experiments and gene expression was monitored using one of the four arrays in the set (approximately 1600 genes). […]

Which “B cell death on activation” value [1] does the source give for `C=CC[C@@H]1/C=C(\C)C[C@H](C)C[C@H](OC)[C@H]2O[C@@](O)(C(=O)C(=O)N3CCCC[C@H]3C(=O)O[C@H](/C(C)=C/[C@@H]3CC[C@@H](O)[C@H](OC)C3)[C@H](C)[C@@H](O)CC1=O)[C@H](C)C[C@@H]2OC` [FK506] here?
The value was “increased B cell death”.

With `O=C(O)CN(CCOCCOCCN(CC(=O)O)CC(=O)O)CC(=O)O` [EGTA] as the molecule, how does the “effect on the transcript profile of stimulated naïve cells” value ([2]; EGTA, FIG. 3C) read?
The value was “essentially the same effect on the transcript profile as FK506”.

For `COc1cccc(-c2cc(=O)c3ccccc3o2)c1N` [PD98059], which “inhibition of upregulation of Egr-1” value ([3]; 20 μM PD98059) is on record?
Its value is “totally inhibited”.

And the IC50 ([3]; B cell activation, PD98059 titrated, read-out: concentration at which upregulation of Egr-1 was 50% inhibited)?
The IC50 was 5 to 10 µM.

And the IC50 ([3]; anti-mu stimulation of non-transgenic B cells, FIG. 3D, read-out: IC50 for inhibition of upregulation of Egr-1)?
Its IC50 is roughly 5 µM.

And the “sensitivity of induction of three transcripts (Egr-1, NAB2 and Gfi-1) upregulated by both self and foreign antigen” value ([2]; FIG. 3D (PD98059), FIG. 3A (FK506))?
The value was “sensitive”.

And the “sensitivity of regulation of other early response genes relative to Egr-1” value ([2]; PD98059 titration)?
Its value is “less sensitive”.
